ChEMBL document CHEMBL5537201, “Discovery of Unique Bis-Substituted Aromatic Amide Derivatives as Novel Highly Potent Antibiotics for Combating Methicillin-Resistant Staphylococcus aureus (MRSA)” (J Med Chem, 2024)
≈ marks a conversion by molar mass, not a printed value. Calls of active or inactive are those of the source. No cut-off for these calls is given here.

What was measured:
[1] = tested on: Staphylococcus aureus; assay: Bactericidal activity against Staphylococcus aureus ATCC6538 assessed as reduction in survival rate at 5 to 10 times MIC measured within 1 hr by colony counting method; format: functional, organism-based
[2] = Cytotoxicity against human HaCaT cells assessed as reduction in cell viability measured after 24 hrs by CCK-8 method; format: toxicity, cell-based
[3] = tested on: Staphylococcus aureus; assay: Antimicrobial activity against methicillin resistant Staphylococcus aureus clinical isolate MRS70 assessed as reduction in bacterial growth incubated for 24 hrs by two-fold broth dilution method; format: functional
[4] = tested on: Staphylococcus aureus; assay: Antimicrobial activity against methicillin resistant Staphylococcus aureus clinical isolate MRS121 assessed as reduction in bacterial growth incubated for 24 hrs by two-fold broth dilution method; format: functional
[5] = tested on: Staphylococcus aureus; assay: Antibiofilm activity against Staphylococcus aureus ATCC6538 assessed as reduction in biofilm formation at 1 to 32 ug/ml incubated for 20 to 22 hrs by crystal violet staining based analysis; format: functional, organism-based; settings: dose 1-32 µg/ml, time 20-22 hrs
[6] = tested on: Staphylococcus aureus; assay: Induction of membrane morphological changes in Staphylococcus aureus ATCC6538 assessed as cell surface wrinkling at 5 times of MIC measured after 0.5 hrs by FE-SEM analysis; format: functional, organism-based
[7] = tested on: Staphylococcus aureus; assay: Induction of membrane morphological changes in Staphylococcus aureus ATCC6538 assessed as formation of cell pit at 5 times of MIC measured after 0.5 hrs by FE-SEM analysis; format: functional, organism-based
[8] = tested on: Cell membrane; assay: Induction of Outer membrane disruption in methicillin resistant Staphylococcus aureus clinical isolate MRS153 assessed as […] in fluorescence intensity measured upto 30 mins by NPN dye based fluorescence analysis; format: cell membranes
[9] = tested on: Staphylococcus aureus; assay: Bactericidal activity against methicillin-resistant Staphylococcus aureus clinical isolate MRS1 at 5 ug/ml measured upto 150 mins; format: functional, organism-based; settings: dose 5.0 µg/ml
[10] = tested on: Staphylococcus aureus; assay: Antimicrobial activity against methicillin resistant Staphylococcus aureus clinical isolate MRS153 assessed as membrane fluidity measured after 35 mins; format: functional, organism-based
[11] = tested on: Staphylococcus aureus; assay: Antimicrobial activity against methicillin resistant Staphylococcus aureus clinical isolate MRS153 assessed as proton dynamic dissipation at pH 5 to 11; format: functional, organism-based
[12] = tested on: Peptidoglycan; assay: Binding affinity to Staphylococcus aureus ATCC6538 peptidoglycan assessed as change in MIC at upto 256 ug/ml measured after 22 hrs; settings: dose <= 256.0 µg/ml
[13] = tested on: Staphylococcus aureus; assay: In vivo antibacterial activity against methicillin-resistant Staphylococcus aureus clinical isolate MRS153 infected in C57BL/6N mouse model assessed as reduction in bacterial load in liver at 3.125 to 12.5 mg/kg, iv measured after 24 hrs; format: functional, organism-based; settings: dose 3.125-12.5 mg/kg
[14] = tested on: Staphylococcus aureus; assay: Upregulation of repair gene expression in Staphylococcus aureus ATCC6538 at 5 ug/ml incubated for 2 hrs by RNA sequencing analysis; format: functional, organism-based; settings: dose 5.0 µg/ml

## O=C(CCC(F)(F)F)N(Cc1cc2ccccc2s1)c1cc(-c2noc(C(F)(F)F)n2)ccc1O
[1]
  Activity: Active
[2]
  IC50 at 24 h: > 25 µg/mL
[3]
  MIC: 1 µg/mL (≈ 1.94 µM)
[4]
  MIC: 1 µg/mL (≈ 1.94 µM)
[5]
  Activity: Active
[6]
  Activity: Active
[7]
  Activity: Active
[8]
  Activity: Dose-Dependent Effect
[9]
  Activity: Active
[10]
  Activity: Active
[11]
  Activity: Active
[12]
  Activity: inactive
[13]
  Activity: Active
[14]
  Activity: Active
